# Results reported in patent US8084589B2, “Phosphoramidite nucleoside analogs” (University of Massachusetts, priority 2007, dated 2011).
# Strand notation (5' to 3'): a small letter for the sugar, then the base; units joined by * are phosphorothioate-linked, units joined directly phosphodiester-linked; [ ] holds rarer units or linkages, { } end groups; capitals alone tell only the bases. [TEGam] = internucleoside phosphate triester carrying a triethylene glycol amino linker (free amine, native form); {Y} = hydroxypropyldithiopropyl phosphate linker, HOCH2CH2SSCH2CH2CH2O-P(O)(OH)-; d = 2'-deoxy (DNA)
# Experiments:
# [1] = Storage stability of oligonucleotide conjugate in water (HPLC); format: physicochemical; settings: deionized water, −20° C., approximately four months
# Method: A limited stability study of one of the novel oligonucleotide conjugates, VIII, which contained 800CW dye at the 8th nucleoside from the 5′-end (see Table 2), was performed.
# [2] = Melting temperature of oligonucleotide duplexes (UV, FRET loss or dequenching); format: physicochemical; settings: for Melting point, ° C, method: Table 5, method UV
# Method: Watson-Crick base paring properties of the modified oligonucleotides were evaluated by comparison of melting temperatures of a duplex formed between the amino-functionalized oligonucleotide CGG AAA GT*C CCT CAT AGC T (I, SEQ ID NO: 1) and its complementary unmodified oligonucleotide 3′[…] 5′ (Duplex 1, SEQ ID NO:5) and a control, unmodified duplex with the same sequence (Duplex 2). The melting temperatures were almost equal, i.e. 65 and 66° C. for Duplexes 1 and 2, respectively.
# The conjugates were characterized by HPLC analysis, mass spectrometry and UV/VIS spectroscopy. Briefly, spectral measurements were performed using a Cary 50 Bio UV-visible spectrophotometer. Melting temperatures were determined with a step-wise Peltier temperature ramping bath in 2 degree mode in a temperature-controlled cuvette holder. Electrospray mass spectrometry (MS) was performed with a LTQ Linear Ion trap mass spectrometer (Thermo, Inc) with use of a Nanomate (Advion, Inc.) robot. Spectra were obtained in the negative ion mode with 1.8 kV spray voltage and 0.8 PSI back pressure (UMMS Proteomic and Mass Spectrometry Core Facility, University of Massachusetts Medical School, Worcester, Mass.). Sample solutions were adjusted to 75% methanol before MS analysis. The full mass spectra were acquired for 30 seconds from m/z 400-2000 using 2 ms scans and 10 ms maximum injection time.
# The synthesized ODN duplex probes were characterized by comparing melting temperatures of native, non-modified ODN pair to those duplexes prepared by using covalently labeled ODNs.
# The FRET between Cy5.5 and the acceptor on complementary ODN was observed after Cy5.5-ODN3 was incubated with Cy7- or 800CW-linked to ODN2 (see FIGS. 20A-B). […] In the presence of internucleoside phosphate-linked Cy7 on the complementary strand it was observed more than 10 times lower fluorescence of Cy5.5 measured at 700 nm (λex=675 nm) and a 3-fold higher fluorescence of Cy7 (if compared to the duplex formed between Cy7-ODN2 and ODN3), FIGS. 20A-D. The formation of duplexes and reversible FRET effects were further studied in more detail by following sigmoidal dependence of the temperature-dependent increase of Cy5.5 fluorescence in a microcuvette of a spectrofluorometer. These experiments enabled measurement of two parameters: melting temperatures and the overall FRET efficacy (Table 5).
# NF-κB p50 = target: T1, NF-κB p50 (Homo sapiens, UniProt P19838); test: EMSA of recombinant p50 binding to fluorescent duplexes; settings: both Cy5.5-800CW and Cy5.5-Cy7 donor/acceptor pairs
# T1 sequence (P19838 1-433 limits assumed): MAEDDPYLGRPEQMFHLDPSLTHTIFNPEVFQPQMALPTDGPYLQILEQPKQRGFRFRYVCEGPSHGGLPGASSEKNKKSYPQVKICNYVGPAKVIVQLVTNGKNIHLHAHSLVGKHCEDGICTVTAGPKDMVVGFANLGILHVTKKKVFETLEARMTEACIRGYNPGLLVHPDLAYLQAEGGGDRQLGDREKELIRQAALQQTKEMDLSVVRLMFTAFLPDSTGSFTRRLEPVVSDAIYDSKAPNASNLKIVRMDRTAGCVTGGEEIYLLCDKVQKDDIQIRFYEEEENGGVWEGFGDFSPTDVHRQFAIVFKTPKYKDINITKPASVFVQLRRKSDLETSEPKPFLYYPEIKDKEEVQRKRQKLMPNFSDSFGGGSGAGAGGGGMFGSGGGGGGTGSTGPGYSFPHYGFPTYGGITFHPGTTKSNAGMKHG
# Excerpt: The binding of NF-κB p50 to duplexes was initially followed by using two methods: 1) electrophoretic mobility shift essay (EMSA) in polyacrylamide gels; 2) fluorescence energy transfer loss measurements after adding p50 to the duplex in solution. In the first case the components of the mixture are off equilibrium since the free duplex is separated due to a faster migration in electric field during the analysis. The second method afforded measurements at the equilibrium but the observed fluorescence change values are affected by the background fluorescence due to the presence of the free duplex. […] Fluorescence of both free and bound duplex could be imaged by using a transillumination scanner and CCD camera that detected emitted light at two wavelengths—[…] (FIG. 21A) and 800 nm (FIG. 21B, fused image—FIG. 21C). […] However, by comparing Cy5.5-labeled duplexes (ODN2/Cy5.5-ODN3 and ODN4/Cy5.5-ODN5) it was determined that in the case of full-length binding sites 94% of fluorescence co-migrated with p50, whereas only 63% co-migrated with ODN4/Cy5.5-ODN5 duplex (FIG. 21D) at the saturating concentrations of p50 monomer (200 nM).
# The half-maximal amount of p50 was 238-300 ng (corresponding to approximately 600 nM). […] A similar trend was observed if 800CW dye was used as Cy5.5 fluorescence acceptor and the differences were also significant (p=0.02).
# [3] = Storage stability of synthon 2 (coupling efficiency on the synthesizer); format: physicochemical; settings: for coupling yield of the monomer: in anhydrous acetonitrile at room temperature, 3 minutes coupling
# Method: Usually the compound was dissolved in anhydrous acetonitrile under argon and was kept on the synthesizer for up to two weeks at room temperature. The coupling yield of the monomer for the 3 minutes coupling duration was 98-99% after 7-8 days, and for the same coupling conditions coupling yield decreased to 90% after additional 10-12 days. Coupling yields were assessed using a DMTr detector reading on the synthesizer.
compound,measurement,setting,value
CGGAAAGT^800CWCCCTCATAGCT [VIII],stability by HPLC analysis,[1],no signs of degradation
"ODN4/ODN5: duplex with truncated NF-κB p50 binding site GGAAAG (chain 1 TGGAAAGCTTTTTACAGTT; chain 2 AACTGTAAAAAGCTTTCCA; listed as DNA, chemistry not fully specified)","Melting point, ° C, method",[2],61 (UV) ° C
same,fluorescence changes in EMSA bands on p50 binding,NF-κB p50,no measurably significant fluorescence changes
I/XIX: non-labelled duplex of I and XIX (chain 1 dCdGdGdAdAdAdGdT[TEGam]dCdCdCdTdCdAdTdAdGdCdT; chain 2 dAdGdCdTdAdTdGdAdGdGdGdAdCdTdTdTdCdCdG-{Y}),"Melting point, ° C., (method)","[2]; Table 3, method UV",64 (UV) ° C.
same,"Melting point, ° C, method",[2],64 (UV) ° C
ODN1/ODN3: non-labeled duplex of ODN1 and ODN3 (chain 1 CGGAAAGTCCCTCATAGCT; chain 2 dAdGdCdTdAdTdGdAdGdGdGdAdCdTdTdTdCdCdG-{Y}; chain 1: unmodified DNA) [reference compound],"Melting point, ° C, method",[2],66 (UV) ° C
"COc1ccc(C(OC[C@H]2O[C@@H](n3cc(C)c(=O)[nH]c3=O)C[C@@H]2OP(OCCOCCOCCNC(=O)C(F)(F)F)N(C(C)C)C(C)C)(c2ccccc2)c2ccc(OC)cc2)cc1 (stereo partly shown) [synthon 2, 5′-O-DMTr-thymidine-3′-O-(2-(2-(2-trifluoroacetamidoethoxy)-ethoxy)ethyl)-N,N-diisopropylphosphoramidite]",stability in dry acetonitrile,"[3]; dry acetonitrile, on synthesizer, room temperature",stable in dry acetonitrile for at least one week
same,coupling yield of the monomer,[3]; after 7-8 days,98-99%
same,coupling yield of the monomer,[3]; after additional 10-12 days,90%
same,stability of dry monomer on storage,[3]; stored six months at −20° C.,no apparent decrease in coupling efficiency
